Measured values as given in paper PMC9070634 (Cell, 2021).

Assays:
[1] = target: T1, BcPycTIR (Burkholderia cepacia, UniProt A0A0J5WTU0); assay: fluorescence plate reader, initial rates; format: biochemical; conditions: 500 uM substrate, 1 uM protein, cUMP as activator, pH 7.5, 100 mM KCl
T1 sequence (A0A0J5WTU0 1-303): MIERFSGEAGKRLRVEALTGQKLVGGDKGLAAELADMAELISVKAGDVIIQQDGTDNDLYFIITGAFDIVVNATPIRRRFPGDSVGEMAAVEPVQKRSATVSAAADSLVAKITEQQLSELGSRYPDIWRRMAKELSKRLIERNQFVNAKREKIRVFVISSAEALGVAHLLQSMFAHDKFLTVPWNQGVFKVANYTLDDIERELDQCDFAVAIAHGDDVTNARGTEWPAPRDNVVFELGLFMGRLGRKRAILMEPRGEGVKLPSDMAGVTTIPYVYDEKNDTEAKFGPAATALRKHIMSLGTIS

[2] = target: T1, BcPycTIR; assay: HPLC of NAD+ cleavage; format: biochemical; conditions: 500 uM NAD+, 500 nM protein, 250 nM cUMP as activator, 25 C, 1 h
[3] = target: T2, BcPycC (Burkholderia cepacia, UniProt A0A0J5ZXG5); assay: HPLC; format: biochemical; conditions: 10 mM MgCl2, 1 mM MnCl2, 37 C
T2 sequence (A0A0J5ZXG5 1-229 limits assumed): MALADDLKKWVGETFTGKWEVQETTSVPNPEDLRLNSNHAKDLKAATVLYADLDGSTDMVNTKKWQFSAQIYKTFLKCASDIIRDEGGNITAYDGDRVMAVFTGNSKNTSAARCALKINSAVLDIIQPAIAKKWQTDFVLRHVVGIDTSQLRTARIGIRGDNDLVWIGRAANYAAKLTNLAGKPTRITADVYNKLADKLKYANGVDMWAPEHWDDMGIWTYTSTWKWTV

[4] = target: PaPycC (Pseudomonas aeruginosa, UniProt P0DV40); assay: thin-layer chromatography with alpha-32P-UTP; format: biochemical; conditions: labelled compound (trace); 10 mM MgCl2, 1 mM MnCl2, pH 8.5, 37 C
[5] = target: the molecule itself; assay: crystal structure
[6] = target: the molecule itself; assay: negative stain electron microscopy

Chain of PaPycC (P0DV40 whole entry): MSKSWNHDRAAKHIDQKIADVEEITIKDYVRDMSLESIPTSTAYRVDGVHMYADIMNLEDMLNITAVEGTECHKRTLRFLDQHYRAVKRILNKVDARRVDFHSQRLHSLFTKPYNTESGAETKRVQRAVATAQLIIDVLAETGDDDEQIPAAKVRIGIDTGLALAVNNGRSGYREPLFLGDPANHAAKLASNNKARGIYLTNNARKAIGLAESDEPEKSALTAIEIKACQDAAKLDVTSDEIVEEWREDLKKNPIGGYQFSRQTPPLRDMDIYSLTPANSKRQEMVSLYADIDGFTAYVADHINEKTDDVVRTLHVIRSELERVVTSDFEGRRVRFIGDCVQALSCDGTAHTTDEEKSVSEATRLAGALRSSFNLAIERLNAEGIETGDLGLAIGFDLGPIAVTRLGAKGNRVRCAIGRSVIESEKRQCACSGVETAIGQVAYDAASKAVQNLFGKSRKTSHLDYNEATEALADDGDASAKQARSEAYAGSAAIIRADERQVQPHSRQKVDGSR

Molecule: NC(=O)c1ccc[n+]([C@@H]2O[C@H](COP(=O)(O)OP(=O)(O)OC[C@H]3O[C@@H](n4cnc5c4ncn4ccnc54)[C@H](O)[C@@H]3O)[C@@H](O)[C@H]2O)c1 [ε-NAD^+]
- fluorescence plate reader, initial rates [1]: NAD^+ cleavage activity of BcPycTIR using the fluorescent substrate ε-NAD^+

Molecule: NC(=O)c1ccc[n+]([C@@H]2O[C@H](COP(=O)(O)OP(=O)(O)OC[C@H]3O[C@@H](n4cnc5c(N)ncnc54)[C@H](O)[C@@H]3O)[C@@H](O)[C@H]2O)c1 [NAD^+]
- HPLC of NAD+ cleavage [2]: Incubation of BcPycTIR with cUMP triggered robust NADase activity

Molecule: O=c1ccn([C@@H]2O[C@@H]3COP(=O)(O)O[C@H]3[C@H]2O)c(=O)[nH]1 [cUMP]
- HPLC; MSMS against standard [3]: MSMS fragmentation spectra of a cUMP standard (bottom) and the BcPycC cyclase product (top)

Molecule: O=c1ccn([C@@H]2O[C@H](COP(=O)(O)OP(=O)(O)OP(=O)(O)O)[C@@H](O)[C@H]2O)c(=O)[nH]1 [UTP]
- thin-layer chromatography with alpha-32P-UTP [4]: demonstrated that PaPycC is an active uridylate cyclase

B1: clade B uridylate cyclase from Burkholderia cepacia LK29 (BcPycC) (enzyme)
chain: ALADDLKKWVGETFTGKWEVQETTSVPNPEDLRLNSNHAKDLKAATVLYADLDGSTDMVNTKKWQFSAQIYKTFLKCASDIIRDEGGNITAYDGDRVMAVFTGNSKNTSAARCALKINSAVLDIIQPAIAKKWQTDFVLRHVVGIDTSQLRTARIGIRGDNDLVWIGRAANYAAKLTNLAGKPTRITADVYNKLADKLKYANGVDMWAPEHWDDMGIWTYTSTWKWTV
- binding result [5]: binds

B2: TIR-domain effector protein from Burkholderia cepacia LK29 (BcPycTIR) (enzyme)
chain: T1 sequence (A0A0J5WTU0 1-303)
- binding result [6]: binds
